Measured values as given in patent US7037896B1, “Peptide (VIRIP) which inhibits a circulating virus in humans and the use thereof” (priority 1999, dated 2006).

How the values were obtained:
[1] = system: X4-tropic HIV-1 NL4-3 V3 variants; assay: Infection of P4R5 indicator cells with NL4-3 V3 recombinants, X4-tropic variants; assay type: cell-based
Source text: (§1) FIG. 3: The V3 loop of the X4-tropic NL43 clone was exchanged for the corresponding sequences of the HIV-1 isolates shown. Thus, the recombinant viruses are distinguished exclusively in the V3 loop. In the right panel, the observed inhibitors effect (%), the overall charge of the V3 region and the co-receptor-tropism are shown. At the bottom, the consensus sequence (SEQ ID NO: 6) is shown.
(§2) The V3 loop of the X4-tropic NL4-3 clone was replaced by the corresponding region of a number of primary HIV-1 isolates. […] To determine the inhibitory influence of VIRIP on these variants, P4R5 indicator cells were examined. P4R5 cells express both CCR5 and CXCR4 and contain the luciferase gene under the control of HIV-1 LTR. This cell line was infected with the various recombinant viruses (50 ng of p24) in the presence and absence of VIRIP, and the infection was quantified using the luciferase test.

[2] = system: X4-tropic HIV-1 P59S isolate; assay: Dose-dependent inhibition of infection of P4R5 indicator cells, P59S isolate; assay type: cell-based; settings: 2 days after infection
Protocol: (§3) P4R5 indicator cells were infected in the presence of the shown concentrations of VIRIP, and the β-galactosidase activity was measured in the cell extract 2 days after the infection.
(§4) In order to quantify the inhibitory effect of the substance according to the invention more precisely, P4R5 indicator cells were infected with the X4-tropic HIV-1 P59S isolate and the R5-tropic 92TH isolate in the presence of different doses of VIRIP.

X4-tropic HIV variants = assay: Replication of HIV isolates in human PBMC (RT activity), X4-tropic variants; assay type: cell-based
Protocol: (§5) FIG. 5: VIRIP inhibits the replication of various HIV isolates with different cell- and co-receptor-tropisms in human PBMC. Prestimulated PBMC were treated with the various HIV-1 isolates (10 ng of p27 antigen) or a chimeric onco-lentivirus (Mu-HIV) in the presence of the VIRIP concentrations shown. Viral replication was determined by measuring the reverse transcriptase activity in the cell culture supernatant.
(§6) The inhibitory effects on R5-tropic forms were lesser. A chimeric onco-lentivirus (Mu-HIV) carrying the MLV envelope protein was not inhibited (FIG. 5, bottom).

R5-tropic 92TH isolate = assay: Dose-dependent inhibition of infection of P4R5 indicator cells, 92TH isolate; assay type: cell-based, HIV-1
Protocol: as §3, §4

[3] = system: chimeric onco-lentivirus (Mu-HIV) carrying the MLV envelope protein; assay: Replication of chimeric onco-lentivirus in human PBMC (RT activity); assay type: cell-based
Protocol: as §5, §6

R5-tropic forms = assay: Replication of HIV isolates in human PBMC (RT activity), R5-tropic forms; assay type: cell-based; settings: compared with X4-tropic and dual-tropic variants
Protocol: as §5, §6

[4] = system: R5-tropic HIV-1 NL4-3 V3 variants; assay: Infection of P4R5 indicator cells with NL4-3 V3 recombinants, R5-tropic variants; assay type: cell-based; settings: 50 ng of p24, luciferase test
Source text: as §1, §2

HIV-1 = settings: three days after infection
Protocol: FIG. 2: Influence of synthetic VIRIP on the infection of CEMx174-SEAP indicator cells (left) and replication in human PBMCs (right). The cells were infected and cultured in the presence of the stated amounts of VIRIP. To determine the viral entry, the activity of the secreted alkaline phosphatase was determined in the culture supernatant of the CEMx174-SEAP cells three days after the infection.

HIV-1 NL43 = assay: Replication of HIV-1 in human PBMCs (reverse transcriptase test in culture supernatant); assay type: cell-based
Protocol: FIG. 1: Purification of VIRIP. The purification steps are described in the text. (b) Inhibition of the replication of HIV-1 NL43 in human blood lymphocytes by fraction 1–20. The cells were stimulated with PHA for 2 days, infected with virus stocks containing 10 ng of p24, and the reverse transcriptase activity determined in the culture supernatant 9 days after the infection. The result of the infection experiments is shown.
The isolation of VIRIP was effected on the basis of its inhibitory action on the replication of HIV-1 in an assay which measures the replication of HIV-1 in human peripheral blood lymphocytes (PBMCs). Thus, aliquots of each of the individual chromatographic fractions described under Example 1 were freeze-dried and then subjected to the biological assay in amounts of from 10 ml up to 1 l of hemofiltrate equivalent. The respective fractions which gave a positive signal were subjected to further purification.
Human peripheral blood lymphocytes (PBMCs) were obtained from whole blood using density gradient centrifugation in Ficoll. The cells were prestimulated for two days (RPMI medium, 20% FKS, 100 U/ml IL-2, 5 μg/ml phytohemagglutinin [PHA]). Then, the PBMCs were sedimented by centrifugation at 1200 rpm for 5 min, taken up in PHA-free RPMI medium (20% FKS, 100 U/ml IL-2) and seeded in 96-well flat-bottomed plates in a volume of 80 μl in concentrations of about 150,000 cells per well.
On the following day, aliquots of the individual chromatographic steps described under Example 1 were supplied in amounts of from 10 ml up to 1 l of hemofiltrate equivalent. Thus, the freeze-dried chromatographic fractions were taken up in water and pipetted to the PBMCs in various concentrations in a total volume of 10 μl. After 2 hours of incubation at 37° C., the cells were infected by the addition of 10 μl of HIV-1 virus stock containing from 0.1 to 10 ng of p24 antigen. Subsequently, 50 μl of the culture medium was replaced every 2 days by fresh medium which additionally contained the corresponding peptide fractions. The production of HIV particles at different times (after 9, 12 and 18 days) from the infection of the cells was quantified in a reverse transcriptase (RT) test. The RT test measures the activity of reverse transcriptase in a cell-free culture supernatant, which is thus a measure of the production of viral particles and viral replication in the PBMC cultures. Alternatively, the viral production was determined in p24 antigen ELISA.

blood cells = assay: Cytotoxic effect on the blood cells
dual-tropic HIV variants = assay: Replication of HIV isolates in human PBMC (RT activity), dual-tropic variants; assay type: cell-based
Protocol: as §5, §6

[5] = system: X4/R5-tropic HIV-1 NL4-3 V3 variants; assay: Infection of P4R5 indicator cells with NL4-3 V3 recombinants, X4/R5-tropic variants; assay type: cell-based; settings: 50 ng of p24, luciferase test
Source text: as §1, §2

LEAIPMSIPPEVKFNKPFVF [VIRIP, 20-amino-acid fragment (amino acids 353 to 372) of human alpha-1-antitrypsin, isolated from hemofiltrate and also chemically synthesized]
efficiency of inhibition of X4-tropic variants having a strongly positively charged V3 loop as compared with R5-tropic or dual-tropic isolates [1]: inhibited more efficiently
inhibition of X4-tropic variants ([1]; 50 ng of p24, luciferase test): inhibited
concentration inhibiting the HIV-1 P59S isolate by 50% [2]: 40 µg/mL
concentration inhibiting the HIV-1 P59S isolate by 90% [2]: 180 µg/mL
suppression of replication of X4-tropic HIV variants (X4-tropic HIV variants; 100 μg/ml): at least partially
suppression of replication of X4-tropic HIV variants (X4-tropic HIV variants; 1000 μg/ml): completely
concentrations required for inhibiting the 92TH isolate relative to P59S (R5-tropic 92TH isolate): about twofold higher concentrations
inhibition of chimeric onco-lentivirus (Mu-HIV) [3]: not inhibited
inhibitory effects on R5-tropic forms (R5-tropic forms): lesser
inhibition of R5-tropic variants [4]: inhibited
inhibition of the HIV-1 infection of CEMx174-SEAP indicator cells (HIV-1): dose-dependent inhibition
inhibition of the replication of HIV-1 in PBMCs (HIV-1 NL43; listed as VIRIP from hemofiltrate): effectively block
inhibition of the replication of HIV-1 in PBMCs (HIV-1 NL43; listed as VIRIP purified from hemofiltrate): dose-dependent inhibition
inhibition of the replication of HIV-1 in PBMCs (HIV-1 NL43; listed as chemically synthesized VIRIP): dose-dependent inhibition
inhibition of the replication of HIV-1 in PBMCs (HIV-1 NL43; listed as synthetically prepared VIRIP): dose-dependent suppression
inhibition of the replication of HIV-1 in PBMCs (HIV-1 NL43; listed as synthetically prepared peptide): effectively block
cytotoxic effect on the blood cells (blood cells): does not exert any cytotoxic effect
suppression of replication of dual-tropic HIV variants (dual-tropic HIV variants; 100 μg/ml): at least partially
suppression of replication of dual-tropic HIV variants (dual-tropic HIV variants; 1000 μg/ml): completely
inhibition of X4/R5-tropic variants [5]: inhibited
